Where two headings read alike, the source gives them in different places.
Key:
Type in all cases: cell-based
E. cloacae M-20 = assay: MIC by agar dilution (CLSI) against highly resistant ESBL strain; settings: E. cloacae M-20
Experimental: (§1) The results on activity of cefepime and other cephalosporin antibacterial agents in combination with tazobactam against highly resistant ESBL strains are given Table 1. In a typical study, overnight grown bacterial cultures were diluted appropriately and inoculated on the agar media containing doubling dilutions of the antibiotic. Observation for growth or no growth was performed after 16-20 h of incubation at 35±2° C. in ambient air. The overall procedure was performed as per Clinical and Laboratory Standards Institute (CLSI) recommendations. This experimental was followed for Examples 2-4 and 6 below (Table 2-4 and 7).

E. coli 7MP [1] = assay: as above; settings: E. coli 7MP
Experimental: as §1

E. coli B-89 [2] = assay: as above; settings: E. coli B-89
Experimental: as §1

E. coli M50 [3] = assay: as above
Experimental: as §1

K. pneumoniae M150 = assay: as above; settings: Klebsiella pneumoniae, M150, K. pneumoniae M150, read-out: MIC
Experimental: as §1

E. coli 7MP [4] = assay: Quantitative drug diffusion assay (disc, zone of inhibition, CLSI); set-up: key to Interpretation of zone as per CLSI recommendations: R: Resistant; I: Intermediate; S: Sensitive (Interpretation as per CLSI recommendations, 2010)
Text: (§2) Activity of cefepime in combination with tazobactam and various penicillins in combination with respective ESBL inhibitors was also investigated against highly resistant ESBL strains in quantitative drug diffusion assay performed as per CLSI recommendations (Clinical and Laboratory Standards Institute (CLSI), performance Standards for Antimicrobial Susceptibility Testing, 20th Informational Supplement, M 100-S20, Volume 30, No. 1, 2010).
(§3) In a typical study, overnight grown bacterial cultures after appropriate dilution were seed inoculated in the molten, cooled agar media and plates poured. Antibiotics containing 6 mm diameter discs were place on the top of the agar surface. Zone of inhibition based observation was performed after 16-18 h of incubation at 35±2° C. in ambient air. The overall procedure was performed as per CLSI recommendations (Table 5 and 6). These assays are routinely used in determining possibility of treating a particular infection using antibiotic and/or their combinations. For example, in case of treating an infection caused by E. coli (M138) using Augmentin® [commercially available combination: Amoxicillin (500 mg)+Clavulanic acid (125 mg)], the zone inhibition values need to be in the sensitive (S) range.

E. coli B-123 = assay: as above; set-up: key to Interpretation of zone as per CLSI recommendations: R: Resistant; I: Intermediate; S: Sensitive (Interpretation as per CLSI recommendations, 2010)
Text: as §2, §3

E. coli B-89 [5] = assay: as above; set-up: key to Interpretation of zone as per CLSI recommendations: R: Resistant; I: Intermediate; S: Sensitive (Interpretation as per CLSI recommendations, 2010)
Text: as §2, §3

E. coli M-138 = assay: as above; set-up: key to Interpretation of zone as per CLSI recommendations: R: Resistant; I: Intermediate; S: Sensitive (Interpretation as per CLSI recommendations, 2010)
Text: as §2, §3

E. coli M50 [6] = assay: as above; set-up: key to Interpretation of zone as per CLSI recommendations: R: Resistant; I: Intermediate; S: Sensitive (Interpretation as per CLSI recommendations, 2010)
Text: as §2, §3

E. coli S-112 = assay: as above; set-up: key to Interpretation of zone as per CLSI recommendations: R: Resistant; I: Intermediate; S: Sensitive (Interpretation as per CLSI recommendations, 2010)
Text: as §2, §3

[7] = ESBL inhibitor 0 mcg (antibiotic alone)
[8] = Table 5, with Clavulanic acid 10 mcg
[9] = Table 6, with Clavulanic acid 10 mcg

- MIC (E. cloacae M-20; with Tazobactam 4 mcg): >64 mg/L
- MIC (E. cloacae M-20; with Tazobactam 8 mcg): >64 mg/L
- MIC (E. cloacae M-20; Enterobacter cloacae, M20, 20 h, Tazobactam 0 mcg (antibiotic alone), read-out: MIC): > 128 mg/L
- MIC (E. coli 7MP [1]; with Tazobactam 4 mcg): >64 mg/L
- MIC (E. coli 7MP [1]; with Tazobactam 8 mcg): >64 mg/L
- MIC (E. coli 7MP [1]; Escherichia coli, 7MP, 20 h, Tazobactam 0 mcg (antibiotic alone), read-out: MIC): > 128 mg/L
- MIC (E. coli B-89 [2]; with Tazobactam 4 mcg): >64 mg/L
- MIC (E. coli B-89 [2]; with Tazobactam 8 mcg): >64 mg/L
- MIC (E. coli B-89 [2]; Escherichia coli, B89, 20 h, Tazobactam 0 mcg (antibiotic alone), read-out: MIC): > 128 mg/L
- MIC (E. coli M50 [3]; Escherichia coli, 20 h, Tazobactam 0 mcg (antibiotic alone), read-out: MIC): > 128 mg/L
- MIC (E. coli M50 [3]; with Tazobactam 4 mcg): >64 mg/L
- MIC (E. coli M50 [3]; with Tazobactam 8 mcg): >64 mg/L
- MIC (K. pneumoniae M150; Tazobactam 0 mcg (antibiotic alone)): > 128 mg/L
- MIC (K. pneumoniae M150; with Tazobactam 4 mcg): > 64 mg/L
- MIC (K. pneumoniae M150; with Tazobactam 8 mcg): > 64 mg/L
SMILES: CC1(C)S[C@@H]2[C@H](NC(=O)[C@H](C(=O)O)c3ccsc3)C(=O)N2[C@H]1C(=O)O [Ticarcillin]
- Zone of Inhibition (E. coli 7MP [4]; [7]): Nil
- Interpretation of zone as per CLSI recommendations (E. coli 7MP [4]; Table 5, ESBL inhibitor 0 mcg): (R)
- Interpretation of zone as per CLSI recommendations (E. coli 7MP [4]; [8]): (R)
- Interpretation of zone as per CLSI recommendations (E. coli 7MP [4]; Table 6, ESBL inhibitor 0 mcg): (R)
- Interpretation of zone as per CLSI recommendations (E. coli 7MP [4]; [9]): (R)
- Zone of Inhibition (E. coli 7MP [4]; with Clavulanic acid 10 mcg): Nil
- Zone of Inhibition (E. coli B-123; [7]): Nil
- Interpretation of zone as per CLSI recommendations (E. coli B-123; Table 5, ESBL inhibitor 0 mcg): (R)
- Interpretation of zone as per CLSI recommendations (E. coli B-123; [8]): (R)
- Interpretation of zone as per CLSI recommendations (E. coli B-123; Table 6, ESBL inhibitor 0 mcg): (R)
- Interpretation of zone as per CLSI recommendations (E. coli B-123; [9]): (R)
- Zone of Inhibition (E. coli B-123; with Clavulanic acid 10 mcg): 13.5 mm
- Zone of Inhibition (E. coli B-89 [5]; [7]): Nil
- Interpretation of zone as per CLSI recommendations (E. coli B-89 [5]; Table 5, ESBL inhibitor 0 mcg): (R)
- Interpretation of zone as per CLSI recommendations (E. coli B-89 [5]; [8]): (R)
- Interpretation of zone as per CLSI recommendations (E. coli B-89 [5]; Table 6, ESBL inhibitor 0 mcg): (R)
- Interpretation of zone as per CLSI recommendations (E. coli B-89 [5]; [9]): (R)
- Zone of Inhibition (E. coli B-89 [5]; with Clavulanic acid 10 mcg): 10 mm
- Zone of Inhibition (E. coli M-138; [7]): Nil
- Interpretation of zone as per CLSI recommendations (E. coli M-138; Table 5, ESBL inhibitor 0 mcg): (R)
- Interpretation of zone as per CLSI recommendations (E. coli M-138; [8]): (R)
- Interpretation of zone as per CLSI recommendations (E. coli M-138; Table 6, ESBL inhibitor 0 mcg): (R)
- Interpretation of zone as per CLSI recommendations (E. coli M-138; [9]): (R)
- Zone of Inhibition (E. coli M-138; with Clavulanic acid 10 mcg): 10 mm
- Zone of Inhibition (E. coli M50 [6]; [7]): 9 mm
- Interpretation of zone as per CLSI recommendations (E. coli M50 [6]; Table 5, ESBL inhibitor 0 mcg): (R)
- Interpretation of zone as per CLSI recommendations (E. coli M50 [6]; [8]): (R)
- Interpretation of zone as per CLSI recommendations (E. coli M50 [6]; Table 6, ESBL inhibitor 0 mcg): (R)
- Interpretation of zone as per CLSI recommendations (E. coli M50 [6]; [9]): (R)
- Zone of Inhibition (E. coli M50 [6]; with Clavulanic acid 10 mcg): 11.5 mm
- Zone of Inhibition (E. coli S-112; [7]): Nil
- Interpretation of zone as per CLSI recommendations (E. coli S-112; Table 5, ESBL inhibitor 0 mcg): (R)
- Interpretation of zone as per CLSI recommendations (E. coli S-112; [8]): (R)
- Interpretation of zone as per CLSI recommendations (E. coli S-112; Table 6, ESBL inhibitor 0 mcg): (R)
- Interpretation of zone as per CLSI recommendations (E. coli S-112; [9]): (R)
- Zone of Inhibition (E. coli S-112; with Clavulanic acid 10 mcg): 10 mm
